Reference: US10131652B2, “Pyrimidinyloxy benzene derivatives as herbicides” (E. I. DU PONT DE NEMOURS AND COMPANY, priority 2014, dated 2018)

Legend:
Assay in all cases: Test F pre-/postemergence plant response
Assay type in all cases: in vivo
Settings in all cases: scale 0 to 100
[1] = system: morningglory (Ipomoea coccinea)
Outline: (§1)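 In a greenhouse, compounds carried in a non-phytotoxic surfactant-containing solvent mixture were applied to soil at planting and to young 1- to 4-leaf plants. About two to three weeks (14 to 21 days) afterward, each species was compared with controls and rated visually from 0 to 100.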

[2] = system: dayflower (Virginia (VA) dayflower, Commelina virginica)
Outline: as §1

[3] = system: velvetleaf (Abutilon theophrasti)
Outline: as §1

[4] = system: johnsongrass (Sorghum halepense)
Outline: as §1

[5] = system: waterhemp (common waterhemp, Amaranthus rudis)
Outline: as §1

[6] = system: hairy beggarticks (Bidens pilosa)
Outline: as §1

[7] = system: field bindweed (Convolvulus arvensis)
Outline: as §1

[8] = system: giant foxtail (Setaria faberii)
Outline: as §1

[9] = system: ragweed (common ragweed, Ambrosia elatior)
Outline: as §1

[10] = system: yellow nutsedge (Cyperus esculentus)
Outline: as §1

[11] = system: barnyardgrass (Echinochloa crus-galli)
Outline: as §1

## Fc1ccc(Oc2ncc(Cl)cn2)c(-c2cc(C(F)F)on2)c1Cl [Compound 96]
[1]; 16 g ai/ha Preemergence
  Plant response rating, Morningglory: 35
[1]; 31 g ai/ha Preemergence
  Plant response rating, Morningglory: 35
[1]; 125 g ai/ha Preemergence
  Plant response rating, Morningglory: 25
[1]; Preemergence
  Plant response rating, Morningglory: 35
[2]; 16 g ai/ha Postemergence
  Plant response rating, Dayflower, VA: 20
[2]; 16 g ai/ha Preemergence
  Plant response rating, Dayflower, VA: 0
[2]; 31 g ai/ha Postemergence
  Plant response rating, Dayflower, VA: 40
[2]; 31 g ai/ha Preemergence
  Plant response rating, Dayflower, VA: 0
[2]; 62 g ai/ha Postemergence
  Plant response rating, Dayflower, VA: 70
[2]; 62 g ai/ha Preemergence
  Plant response rating, Dayflower, VA: 0
[2]; 125 g ai/ha Postemergence
  Plant response rating, Dayflower, VA: 70
[2]; 125 g ai/ha Preemergence
  Plant response rating, Dayflower, VA: 20
[3]; 16 g ai/ha Preemergence
  Plant response rating, Velvetleaf: 0
[3]; 31 g ai/ha Preemergence
  Plant response rating, Velvetleaf: 60
[3]; 125 g ai/ha Preemergence
  Plant response rating, Velvetleaf: 80
[3]; Preemergence
  Plant response rating, Velvetleaf: 80
[4]; 16 g ai/ha Preemergence
  Plant response rating, Johnsongrass: 20
[4]; 31 g ai/ha Preemergence
  Plant response rating, Johnsongrass: 60
[4]; 125 g ai/ha Preemergence
  Plant response rating, Johnsongrass: 98
[4]; Preemergence
  Plant response rating, Johnsongrass: 50
[5]; 16 g ai/ha Postemergence
  Plant response rating, Waterhemp: 75
[5]; 16 g ai/ha Preemergence
  Plant response rating, Waterhemp: 40
[5]; 31 g ai/ha Postemergence
  Plant response rating, Waterhemp: 90
[5]; 31 g ai/ha Preemergence
  Plant response rating, Waterhemp: 100
[5]; 62 g ai/ha Postemergence
  Plant response rating, Waterhemp: 100
[5]; 125 g ai/ha Postemergence
  Plant response rating, Waterhemp: 95
[5]; 125 g ai/ha Preemergence
  Plant response rating, Waterhemp: 100
[5]; Preemergence
  Plant response rating, Waterhemp: 100
[6]; 16 g ai/ha Postemergence
  Plant response rating, Beggarticks: 0
[6]; 16 g ai/ha Preemergence
  Plant response rating, Beggarticks: 0
[6]; 31 g ai/ha Postemergence
  Plant response rating, Beggarticks: 30
[6]; 31 g ai/ha Preemergence
  Plant response rating, Beggarticks: 0
[6]; 62 g ai/ha Postemergence
  Plant response rating, Beggarticks: 40
[6]; 62 g ai/ha Preemergence
  Plant response rating, Beggarticks: 0
[6]; 125 g ai/ha Postemergence
  Plant response rating, Beggarticks: 40
[6]; 125 g ai/ha Preemergence
  Plant response rating, Beggarticks: 20
[7]; 16 g ai/ha Postemergence
  Plant response rating, Field Bindweed: 5
[7]; 16 g ai/ha Preemergence
  Plant response rating, Field Bindweed: 0
[7]; 31 g ai/ha Postemergence
  Plant response rating, Field Bindweed: 10
[7]; 31 g ai/ha Preemergence
  Plant response rating, Field Bindweed: 0
[7]; 62 g ai/ha Postemergence
  Plant response rating, Field Bindweed: 20
[7]; 62 g ai/ha Preemergence
  Plant response rating, Field Bindweed: 60
[7]; 125 g ai/ha Postemergence
  Plant response rating, Field Bindweed: 50
[7]; 125 g ai/ha Preemergence
  Plant response rating, Field Bindweed: 40
[8]; 16 g ai/ha Preemergence
  Plant response rating, Foxtail, Giant: 0
[8]; 31 g ai/ha Preemergence
  Plant response rating, Foxtail, Giant: 0
[8]; 62 g ai/ha Preemergence
  Plant response rating, Foxtail, Giant: 0
[8]; 125 g ai/ha Preemergence
  Plant response rating, Foxtail, Giant: 20
[9]; 16 g ai/ha Postemergence
  Plant response rating, Ragweed: 15
[9]; 16 g ai/ha Preemergence
  Plant response rating, Ragweed: 0
[9]; 31 g ai/ha Postemergence
  Plant response rating, Ragweed: 20
[9]; 31 g ai/ha Preemergence
  Plant response rating, Ragweed: 20
[9]; 62 g ai/ha Postemergence
  Plant response rating, Ragweed: 20
[9]; 125 g ai/ha Postemergence
  Plant response rating, Ragweed: 40
[9]; 125 g ai/ha Preemergence
  Plant response rating, Ragweed: 35
[9]; Preemergence
  Plant response rating, Ragweed: 50
[10]; 16 g ai/ha Preemergence
  Plant response rating, Nutsedge, Yellow: 0
[10]; 31 g ai/ha Preemergence
  Plant response rating, Nutsedge, Yellow: 0
[10]; 125 g ai/ha Preemergence
  Plant response rating, Nutsedge, Yellow: 0
[10]; Preemergence
  Plant response rating, Nutsedge, Yellow: 0
[11]; 16 g ai/ha Postemergence
  Plant response rating, Barnyardgrass: 0
[11]; 16 g ai/ha Preemergence
  Plant response rating, Barnyardgrass: 0
[11]; 31 g ai/ha Postemergence
  Plant response rating, Barnyardgrass: 10
[11]; 31 g ai/ha Preemergence
  Plant response rating, Barnyardgrass: 0
[11]; 62 g ai/ha Postemergence
  Plant response rating, Barnyardgrass: 20
[11]; 62 g ai/ha Preemergence
  Plant response rating, Barnyardgrass: 0
[11]; 125 g ai/ha Postemergence
  Plant response rating, Barnyardgrass: 20
[11]; 125 g ai/ha Preemergence
  Plant response rating, Barnyardgrass: 0

## Fc1cccc(Oc2ncc(Cl)cn2)c1-c1cc(C(F)(F)F)on1 [Compound 168, 5-chloro-2-[2-[5-(trifluoromethyl)-3-isoxazolyl]-3-fluorophenoxy]pyrimidine]
[1]; Ipomoea, pre-emergence, 16 g ai/ha Preemergence, read-out: Plant response rating, Morningglory
  pest or weed control at 16 g/ha: 0%
[1]; Ipomoea, pre-emergence, 31 g ai/ha Preemergence, read-out: Plant response rating, Morningglory
  pest or weed control at 31 g/ha: 0%
[1]; Ipomoea, pre-emergence, 125 g ai/ha Preemergence, read-out: Plant response rating, Morningglory
  pest or weed control at 125 g/ha: 75%
[1]; Ipomoea, pre-emergence, Preemergence, read-out: Plant response rating, Morningglory
  pest or weed control at 62 g/ha: 15%
[2]; Commelina virginica, pre-emergence, 16 g ai/ha Preemergence, read-out: Plant response rating, Dayflower, VA
  pest or weed control at 16 g/ha: 5%
[2]; Commelina virginica, pre-emergence, 31 g ai/ha Preemergence, read-out: Plant response rating, Dayflower, VA
  pest or weed control at 31 g/ha: 10%
[2]; Commelina virginica, pre-emergence, 62 g ai/ha Preemergence, read-out: Plant response rating, Dayflower, VA
  pest or weed control at 62 g/ha: 70%
[2]; Commelina virginica, pre-emergence, 125 g ai/ha Preemergence, read-out: Plant response rating, Dayflower, VA
  pest or weed control at 125 g/ha: 90%
[3]; Abutilon theophrasti, pre-emergence, 16 g ai/ha Preemergence, read-out: Plant response rating, Velvetleaf
  pest or weed control at 16 g/ha: 35%
[3]; Abutilon theophrasti, pre-emergence, 31 g ai/ha Preemergence, read-out: Plant response rating, Velvetleaf
  pest or weed control at 31 g/ha: 75%
[3]; Abutilon theophrasti, pre-emergence, 125 g ai/ha Preemergence, read-out: Plant response rating, Velvetleaf
  pest or weed control at 125 g/ha: 100%
[3]; Abutilon theophrasti, pre-emergence, Preemergence, read-out: Plant response rating, Velvetleaf
  pest or weed control at 62 g/ha: 100%
[4]; Sorghum halepense, pre-emergence, 16 g ai/ha Preemergence, read-out: Plant response rating, Johnsongrass
  pest or weed control at 16 g/ha: 0%
[4]; Sorghum halepense, pre-emergence, 31 g ai/ha Preemergence, read-out: Plant response rating, Johnsongrass
  pest or weed control at 31 g/ha: 30%
[4]; Sorghum halepense, pre-emergence, 125 g ai/ha Preemergence, read-out: Plant response rating, Johnsongrass
  pest or weed control at 125 g/ha: 100%
[4]; Sorghum halepense, pre-emergence, Preemergence, read-out: Plant response rating, Johnsongrass
  pest or weed control at 62 g/ha: 35%
[5]; Amaranthus tuberculatus, pre-emergence, 16 g ai/ha Preemergence, read-out: Plant response rating, Waterhemp
  pest or weed control at 16 g/ha: 100%
[5]; Amaranthus tuberculatus, pre-emergence, 31 g ai/ha Preemergence, read-out: Plant response rating, Waterhemp
  pest or weed control at 31 g/ha: 100%
[5]; Amaranthus tuberculatus, pre-emergence, 125 g ai/ha Preemergence, read-out: Plant response rating, Waterhemp
  pest or weed control at 125 g/ha: 100%
[5]; Amaranthus tuberculatus, pre-emergence, Preemergence, read-out: Plant response rating, Waterhemp
  pest or weed control at 62 g/ha: 100%
[6]; Bidens pilosa, pre-emergence, 16 g ai/ha Preemergence, read-out: Plant response rating, Beggarticks
  pest or weed control at 16 g/ha: 0%
[6]; Bidens pilosa, pre-emergence, 31 g ai/ha Preemergence, read-out: Plant response rating, Beggarticks
  pest or weed control at 31 g/ha: 0%
[6]; Bidens pilosa, pre-emergence, 62 g ai/ha Preemergence, read-out: Plant response rating, Beggarticks
  pest or weed control at 62 g/ha: 0%
[6]; Bidens pilosa, pre-emergence, 125 g ai/ha Preemergence, read-out: Plant response rating, Beggarticks
  pest or weed control at 125 g/ha: 0%
[7]; Convolvulus arvensis, pre-emergence, 16 g ai/ha Preemergence, read-out: Plant response rating, Field Bindweed
  pest or weed control at 16 g/ha: 40%
[7]; Convolvulus arvensis, pre-emergence, 31 g ai/ha Preemergence, read-out: Plant response rating, Field Bindweed
  pest or weed control at 31 g/ha: 60%
[7]; Convolvulus arvensis, pre-emergence, 62 g ai/ha Preemergence, read-out: Plant response rating, Field Bindweed
  pest or weed control at 62 g/ha: 50%
[7]; Convolvulus arvensis, pre-emergence, 125 g ai/ha Preemergence, read-out: Plant response rating, Field Bindweed
  pest or weed control at 125 g/ha: 70%
[8]; Setaria faberi, pre-emergence, 16 g ai/ha Preemergence, read-out: Plant response rating, Foxtail, Giant
  pest or weed control at 16 g/ha: 65%
[8]; Setaria faberi, pre-emergence, 31 g ai/ha Preemergence, read-out: Plant response rating, Foxtail, Giant
  pest or weed control at 31 g/ha: 98%
[8]; Setaria faberi, pre-emergence, 62 g ai/ha Preemergence, read-out: Plant response rating, Foxtail, Giant
  pest or weed control at 62 g/ha: 100%
[8]; Setaria faberi, pre-emergence, 125 g ai/ha Preemergence, read-out: Plant response rating, Foxtail, Giant
  pest or weed control at 125 g/ha: 100%
[9]; Ambrosia artemisiifolia, pre-emergence, 16 g ai/ha Preemergence, read-out: Plant response rating, Ragweed
  pest or weed control at 16 g/ha: 10%
[9]; Ambrosia artemisiifolia, pre-emergence, 31 g ai/ha Preemergence, read-out: Plant response rating, Ragweed
  pest or weed control at 31 g/ha: 35%
[9]; Ambrosia artemisiifolia, pre-emergence, 125 g ai/ha Preemergence, read-out: Plant response rating, Ragweed
  pest or weed control at 125 g/ha: 98%
[9]; Ambrosia artemisiifolia, pre-emergence, Preemergence, read-out: Plant response rating, Ragweed
  pest or weed control at 62 g/ha: 65%
[10]; Cyperus, pre-emergence, 16 g ai/ha Preemergence, read-out: Plant response rating, Nutsedge, Yellow
  pest or weed control at 16 g/ha: 0%
[10]; Cyperus, pre-emergence, 31 g ai/ha Preemergence, read-out: Plant response rating, Nutsedge, Yellow
  pest or weed control at 31 g/ha: 0%
[10]; Cyperus, pre-emergence, 125 g ai/ha Preemergence, read-out: Plant response rating, Nutsedge, Yellow
  pest or weed control at 125 g/ha: 20%
[10]; Cyperus, pre-emergence, Preemergence, read-out: Plant response rating, Nutsedge, Yellow
  pest or weed control at 62 g/ha: 0%
[11]; Echinochloa crus-galli, pre-emergence, 16 g ai/ha Preemergence, read-out: Plant response rating, Barnyardgrass
  pest or weed control at 16 g/ha: 0%
[11]; Echinochloa crus-galli, pre-emergence, 31 g ai/ha Preemergence, read-out: Plant response rating, Barnyardgrass
  pest or weed control at 31 g/ha: 25%
[11]; Echinochloa crus-galli, pre-emergence, 62 g ai/ha Preemergence, read-out: Plant response rating, Barnyardgrass
  pest or weed control at 62 g/ha: 80%
[11]; Echinochloa crus-galli, pre-emergence, 125 g ai/ha Preemergence, read-out: Plant response rating, Barnyardgrass
  pest or weed control at 125 g/ha: 100%
